Laboratory results as given in patent publication US12581252B2, “Substituted pyrrolo[3,4-b]pyridines as PI3K-α inhibitors” (Relay Therapeutics, Inc., priority 2020, dated 2026).

The compounds below were run against H1047R PIK3CA enzyme (Homo sapiens, UniProt P42336, H1047R) (assay: ADP-Glo Biochemical PIK3CA Kinase Assay).
Chain of H1047R PIK3CA enzyme (P42336 whole entry H1047R): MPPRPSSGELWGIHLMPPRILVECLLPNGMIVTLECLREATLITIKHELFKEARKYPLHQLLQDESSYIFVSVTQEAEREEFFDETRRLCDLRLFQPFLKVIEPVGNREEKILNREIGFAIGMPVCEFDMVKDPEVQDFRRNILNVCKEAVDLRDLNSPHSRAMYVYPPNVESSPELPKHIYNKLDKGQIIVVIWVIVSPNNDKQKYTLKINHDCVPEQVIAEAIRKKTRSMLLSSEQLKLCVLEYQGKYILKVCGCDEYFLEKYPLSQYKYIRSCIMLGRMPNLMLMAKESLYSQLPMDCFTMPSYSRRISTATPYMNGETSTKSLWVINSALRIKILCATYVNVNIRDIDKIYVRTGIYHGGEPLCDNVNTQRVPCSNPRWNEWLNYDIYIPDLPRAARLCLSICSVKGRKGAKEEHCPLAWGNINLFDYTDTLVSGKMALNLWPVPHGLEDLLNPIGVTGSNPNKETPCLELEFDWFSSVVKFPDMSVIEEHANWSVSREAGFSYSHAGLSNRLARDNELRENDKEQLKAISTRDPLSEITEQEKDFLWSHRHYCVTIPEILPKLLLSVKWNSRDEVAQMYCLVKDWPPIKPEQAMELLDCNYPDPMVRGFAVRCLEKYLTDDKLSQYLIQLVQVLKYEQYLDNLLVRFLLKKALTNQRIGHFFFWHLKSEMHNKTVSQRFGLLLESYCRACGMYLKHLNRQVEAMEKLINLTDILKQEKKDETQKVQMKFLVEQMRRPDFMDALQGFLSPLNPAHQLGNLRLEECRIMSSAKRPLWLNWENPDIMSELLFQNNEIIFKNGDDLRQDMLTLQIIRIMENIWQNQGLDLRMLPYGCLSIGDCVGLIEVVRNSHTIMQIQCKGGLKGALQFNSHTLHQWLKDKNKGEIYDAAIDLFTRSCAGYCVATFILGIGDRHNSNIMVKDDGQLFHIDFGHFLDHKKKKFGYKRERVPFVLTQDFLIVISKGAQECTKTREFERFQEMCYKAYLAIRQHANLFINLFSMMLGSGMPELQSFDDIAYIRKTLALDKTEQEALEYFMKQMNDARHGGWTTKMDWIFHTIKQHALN
Chain of H1047R PIK3CA enzyme (P27986 whole entry partner): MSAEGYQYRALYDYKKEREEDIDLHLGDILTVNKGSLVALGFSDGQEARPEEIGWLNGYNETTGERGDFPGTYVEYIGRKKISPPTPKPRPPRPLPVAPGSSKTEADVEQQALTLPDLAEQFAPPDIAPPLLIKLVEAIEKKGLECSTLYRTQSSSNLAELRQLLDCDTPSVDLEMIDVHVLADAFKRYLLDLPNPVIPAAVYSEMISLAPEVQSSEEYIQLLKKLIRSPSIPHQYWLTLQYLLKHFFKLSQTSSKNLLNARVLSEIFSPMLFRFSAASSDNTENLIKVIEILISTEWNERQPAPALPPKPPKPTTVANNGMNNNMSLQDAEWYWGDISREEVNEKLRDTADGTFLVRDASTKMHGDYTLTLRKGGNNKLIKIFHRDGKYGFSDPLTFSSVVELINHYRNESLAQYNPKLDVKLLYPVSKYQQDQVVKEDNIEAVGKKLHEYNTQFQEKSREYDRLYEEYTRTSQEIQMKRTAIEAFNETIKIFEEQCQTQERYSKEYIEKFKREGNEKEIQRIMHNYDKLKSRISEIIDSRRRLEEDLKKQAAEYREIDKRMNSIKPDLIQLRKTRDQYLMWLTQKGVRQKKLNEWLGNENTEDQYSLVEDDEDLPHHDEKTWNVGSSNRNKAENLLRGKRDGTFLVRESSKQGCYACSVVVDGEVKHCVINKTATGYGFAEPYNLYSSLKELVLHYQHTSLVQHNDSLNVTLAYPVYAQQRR

Structure (SMILES)	IC50 [µM]
Cc1ccccc1C1NC(=O)c2cc(CO)cc(NC(=O)c3nsc4ccccc34)c21 (stereo not drawn) [Compound I-131, N-[6-(Hydroxymethyl)-3-(2-methylphenyl)-1-oxo-2,3-dihydro-1H-isoindol-4-yl]-1,2-benzothiazole-3-carboxamide]	≤ 0.1
Cc1ccccc1C1NC(=O)c2cccc(NC(=O)c3coc4c(F)cc(Cl)cc34)c21 (stereo not drawn) [Compound I-81]	≤ 0.1
Cn1cc(-c2cc(NC(=O)c3nsc4ccccc34)c3c(n2)C(=O)NC3c2ccccc2Cl)cn1 (stereo not drawn) [Compound I-108]	0.1 to 0.5
O=C(Nc1cccc2c1C(c1nc(C(F)(F)F)cs1)NC2=O)c1cc(F)cc(C(F)(F)F)c1 (stereo not drawn) [Compound I-2330]	10 to 100
O=C(Nc1cc(-c2ccc3ncnn3c2)nc2c1C(C1CCCCO1)NC2=O)c1cc(F)cc(C(F)(F)F)c1 (stereo not drawn) [Compound I-1706]	10 to 100
O=C1NC(c2cc(F)ccc2Cl)c2c(NC(=O)N3CCc4ccncc43)cccc21 (stereo not drawn) [Compound I-2182]	10 to 100
O=C1NC(c2cc(F)ccc2Cl)c2c(NC(=O)c3noc4c3CCCC4)cccc21 (stereo not drawn) [Compound I-2238]	1 to 10
Cc1cn(-c2cc(NC(=O)N3C[C@@](O)(C(F)(F)F)c4cc(F)ccc43)c3c(c2)C(=O)N[C@@H]3c2cc(F)ccc2Cl)cn1 (single isomer, unassigned) [Compound I-2636]	1 to 10
O=C1N[C@H](c2cc(F)ccc2Cl)c2c(NC(=O)[C@H]3C[C@@H](O)C[C@@H](C(F)(F)F)C3)cc(Br)cc21 (single isomer, unassigned) [Compound I-2272]	10 to 100
O=C1NC(c2cc(F)ccc2Cl)c2c(NC(=O)c3nccc4ccccc34)cc(Br)cc21 (stereo not drawn) [Compound I-638]	10 to 100
Cc1ccccc1C1NC(=O)c2c(C(=O)N3CC(S(C)(=O)=O)C3)ccc(NC(=O)c3nsc4ccccc34)c21 (stereo not drawn) [Compound I-225]	0.1 to 0.5
O=C(Nc1cc(-c2ccc3ncnn3c2)cc2c1[C@H](c1cc(F)ccc1Cl)NC2=O)c1cc(F)cc(Cl)c1 (stereo in doubt) [Compound I-1165]	≤ 0.1
O=C(Nc1cc(OCC2(O)COC2)cc2c1C(c1cc(F)ccc1Cl)NC2=O)c1cc(F)cc(C(F)(F)F)c1 (stereo not drawn) [Compound I-1338]	0.1 to 0.5
O=C(Nc1cc(-n2cnc3ncccc32)cc2c1C(c1cc(F)ccc1Cl)NC2=O)c1cc(F)cc(C(F)(F)F)c1 (stereo not drawn) [Compound I-1233]	≤ 0.1
O=C(Nc1ccccc1)c1cccc2c1C(c1cc(F)ccc1Cl)NC2=O (stereo not drawn) [Compound I-2188]	10 to 100
Cc1ccccc1CC1NC(=O)c2cccc(NC(=O)c3cc(F)cc(C(F)(F)F)c3)c21 (stereo not drawn) [Compound I-841]	1 to 10
NC1(C(F)(F)F)CC(C(=O)Nc2cc(Br)cc3c2C(c2cc(F)ccc2Cl)NC3=O)C1 (stereo not drawn) [Compound I-1632]	10 to 100
O=C(O)c1cc(NC(=O)c2cc(F)cc(C(F)(F)F)c2)c2c(c1)C(=O)NC2c1cc(F)ccc1Cl (stereo not drawn) [Compound I-494]	≤ 0.1
NC(=O)COc1ncc(-c2cc(NC(=O)c3cc(F)cc(C(F)(F)F)c3)c3c(c2)C(=O)NC3c2cc(F)ccc2Cl)cn1 (stereo not drawn) [Compound I-1416]	≤ 0.1
N#Cc1cnn(Cc2cc(NC(=O)N3C[C@@](O)(C(F)(F)F)c4cc(F)ccc43)c3c(c2)C(=O)N[C@@H]3c2cc(F)ccc2Cl)c1 (single isomer, unassigned) [Compound I-2670]	0.5 to 1
N#Cc1ncc(-c2cc(NC(=O)c3cc(F)cc(C(F)(F)F)c3)c3c(c2)C(=O)N[C@H]3c2cc(F)ccc2Cl)cn1 [Compound I-979]	0.1 to 0.5
O=C1NC(c2cc(F)ccc2Cl)c2c1cc(-c1ccc3ncnn3c1)cc2N1CCN(C(=O)C(F)(F)F)CC1 (stereo not drawn) [Compound I-2046]	10 to 100
O=C1NCC(c2cc(NC(=O)c3cc(F)cc(C(F)(F)F)c3)c3c(c2)C(=O)NC3c2cc(F)ccc2Cl)O1 (stereo not drawn) [Compound I-1359]	≤ 0.1

Structure (SMILES)	IC50 [µM]
Cn1cc(-c2cc(NC(=O)c3cc(F)cc(C(F)(F)F)c3)c3c(n2)C(=O)N[C@H]3c2cc(F)ccc2Cl)ccc1=O [Compound I-588]	≤ 0.1
O=C1NC(c2cc(F)ccc2Cl)c2c(NC(=O)C34CCC(C(O)C(F)(F)F)(CC3)C4)cccc21 (stereo not drawn) [Compound I-2285]	10 to 100
O=C(Nc1cc(Br)cc2c1[C@H](c1ccc(F)cc1Cl)NC2=O)c1cc(F)cc(C(F)(F)F)c1 [Compound I-755]	0.1 to 0.5
C[C@H](C#N)Oc1cc(NC(=O)c2cc(F)cc(C(F)(F)F)c2)c2c(c1)C(=O)N[C@H]2c1cc(F)ccc1Cl (single isomer, unassigned) [Compound I-2006]	≤ 0.1
O=C(Nc1cc(-c2ccc3nccn3c2)cc2c1C(c1cc(F)ccc1Cl)NC2=O)c1cc(F)cc(C(F)(F)F)c1 (stereo not drawn) [Compound I-736]	≤ 0.1
N#CC1(n2cc(-c3cc(NC(=O)c4cc(F)cc(C(F)(F)F)c4)c4c(c3)C(=O)N[C@H]4c3cc(F)ccc3Cl)cn2)CC1 [Compound I-1886]	≤ 0.1
Nc1ccc(Cl)c(C2NC(=O)c3cccc(NC(=O)c4cc(F)cc(C(F)(F)F)c4)c32)c1 (stereo not drawn) [Compound I-429]	1 to 10
CC1(c2ccccc2)NC(=O)c2cccc(NC(=O)c3csc4ccccc34)c21 (stereo not drawn) [Compound I-130]	10 to 100
COc1cccc(-c2cccc3c2C(c2ccccc2C)NC3=O)n1 (stereo not drawn) [Compound I-14]	10 to 100
CN1CC=C(c2cc(-c3ccc4ncnn4c3)cc3c2C(c2cc(F)ccc2Cl)NC3=O)CC1 (stereo not drawn) [Compound I-2021]	10 to 100
O=C(Nc1cc(-c2cn[nH]c2)nc2c1C(c1cc(F)ccc1Cl)NC2=O)c1cc(F)cc(Cl)c1 (stereo not drawn) [Compound I-182]	0.1 to 0.5
O=C(Nc1cc(-c2cnn(-c3ncccn3)c2)cc2c1C(c1cc(F)ccc1Cl)NC2=O)c1cc(F)cc(C(F)(F)F)c1 (single isomer, unassigned) [Compound I-1554]	1 to 10
O=C1N[C@@H](c2cc(F)ccc2Cl)c2c(N[C@@H]3CCOc4ccccc43)cc(Br)cc21 (racemic) [Compound I-2014]	10 to 100
NC(=O)c1cc(NC(=O)c2cc(F)cc(C(F)(F)F)c2)c2c(c1)C(=O)NC2c1cc(F)ccc1Cl (stereo not drawn) [Compound I-555]	≤ 0.1
O=C1N[C@@H](c2cc(F)ccc2Cl)c2c(NC(=O)N3C[C@@H](O)c4cccc(F)c43)cccc21 (single isomer, unassigned) [Compound I-2210]	10 to 100
O=C(Nc1cc(Br)cc2c1C(c1cc(F)ccc1Cl)NC2=O)c1cc(C(F)(F)F)ccc1F (stereo not drawn) [Compound I-515]	1 to 10
O=C1N[C@@H](c2cc(F)ccc2Cl)c2c(NC(=O)N3C[C@H](C(F)F)c4ccccc43)cccc21 (single isomer, unassigned) [Compound I-2332]	1 to 10
O=C1NC(c2cc(F)ccc2Cl)c2c(NC(=O)N3CC4(CC4)c4ccccc43)cc(Br)cc21 (stereo not drawn) [Compound I-1462]	0.1 to 0.5
O=C(Nc1cc(C#CC2COC2)cc2c1C(c1cc(F)ccc1Cl)NC2=O)c1cc(F)cc(C(F)(F)F)c1 (stereo not drawn) [Compound I-1223]	≤ 0.1
O=C1N[C@@H](c2cc(F)ccc2Cl)c2c(Nc3cn[nH]c3)cc(Br)cc21 [Compound I-2184]	10 to 100
COC1CC(Nc2cc(NC(=O)c3cc(F)cc(C(F)(F)F)c3)c3c(c2)C(=O)NC3c2cc(F)ccc2Cl)C1 (single isomer, unassigned) [Compound I-781]	≤ 0.1
CC(C)(C)N[C@H]1NC(=O)c2cccc(NC(=O)c3cc(F)cc(C(F)(F)F)c3)c21 (single isomer, unassigned) [Compound I-2248]	10 to 100
